{"source": "patent US9695155B2", "about": "“Herbicidal substituted pyrimidinyloxy benzene compounds” (E. I. DU PONT DE NEMOURS AND COMPANY, priority 2013, dated 2017)", "key": {"Italian ryegrass": {"test_system": "Italian ryegrass", "assay": "Test C postemergence", "type": "in vivo, Lolium multiflorum", "conditions": "for Plant response rating, Ryegrass, Italian: scale 0 to 100 (0 no effect, 100 complete control)", "how_it_was_run": "(§1)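 Plants were kept under greenhouse conditions for 13–15 days following spray. Pre-emergent application went to soil (loam–sand), post-emergent to foliage at 1–4 leaves. Evaluation: visual, percent control against untreated checks.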"}, "barnyardgrass [1]": {"test_system": "barnyardgrass", "assay": "Test C postemergence", "type": "in vivo, Echinochloa crus-galli", "conditions": "for Barnyardgrass plant response rating: 16 g ai/ha; for Barnyardgrass plant response rating / Plant response rating, Barnyardgrass: scale 0 to 100 (0 no effect, 100 complete control)", "how_it_was_run": "as §1"}, "barnyardgrass [2]": {"test_system": "barnyardgrass", "assay": "Test B flooded paddy test", "type": "in vivo, Echinochloa crus-galli", "conditions": "Flood, 250 g ai/ha; 0 to 100 scale where 0 is no effect and 100 is complete control", "how_it_was_run": "(§2)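 Evaluation is visual, against untreated controls, 13 to 15 days after treatment. Before treatment, plants reached the 2-leaf stage; pots were then flooded 3 cm deep, compound was added to the water, and that level was maintained. Ratings run 0 to 100, with 100 meaning complete control.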"}, "wild oat": {"test_system": "wild oat", "assay": "Test C postemergence", "type": "in vivo, Avena fatua", "conditions": "for Plant response rating, Oat, Wild: scale 0 to 100 (0 no effect, 100 complete control)", "how_it_was_run": "as §1"}, "corn [3]": {"test_system": "corn", "assay": "Test C preemergence", "type": "in vivo, Zea mays", "conditions": "for Corn plant response rating: preemergence; for Plant response rating, Corn: Preemergence, 31 g ai/ha, scale 0 to 100, 0 no effect, 100 complete control", "how_it_was_run": "as §1"}, "corn [4]": {"test_system": "corn", "assay": "Test A preemergence", "type": "in vivo, Zea mays", "conditions": "for Plant response rating, Corn: 125 g ai/ha, 0 to 100 scale where 0 is no effect and 100 is complete control; for Corn plant response rating: 500 g ai/ha, 0 to 100 scale, 0 no effect, 100 complete control, approx. 10 days", "how_it_was_run": "(§3)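 Visual 0–100 rating (100 = complete control) taken about 10 d post-treatment relative to untreated checks. Preemergence: directed soil spray on sown loam/sand pots. Postemergence: seedlings 2–10 cm, 1–2 leaf. Non-phytotoxic solvent formulation with surfactant.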"}, "morningglory": {"test_system": "morningglory", "assay": "Test A preemergence", "type": "in vivo, Ipomoea spp.", "conditions": "for Plant response rating, Morningglory: 125 g ai/ha, 0 to 100 scale where 0 is no effect and 100 is complete control; for Morningglory plant response rating: 500 g ai/ha, 0 to 100 scale, 0 no effect, 100 complete control, approx. 10 days", "how_it_was_run": "as §3"}, "barnyardgrass [5]": {"test_system": "barnyardgrass", "assay": "Test A postemergence", "type": "in vivo, Echinochloa crus-galli", "conditions": "0 to 100 scale where 0 is no effect and 100 is complete control", "how_it_was_run": "as §3"}, "waterhemp": {"test_system": "waterhemp", "assay": "Test C postemergence", "type": "in vivo, Amaranthus rudis", "conditions": "for Plant response rating, Waterhemp: scale 0 to 100 (0 no effect, 100 complete control)", "how_it_was_run": "as §1"}, "pigweed": {"test_system": "pigweed", "assay": "Test C postemergence", "type": "in vivo, Amaranthus retroflexus", "conditions": "for Plant response rating, Pigweed: scale 0 to 100 (0 no effect, 100 complete control)", "how_it_was_run": "as §1"}, "johnsongrass": {"test_system": "johnsongrass", "assay": "Test C postemergence", "type": "in vivo, Sorghum halepense", "conditions": "for Johnsongrass plant response rating: 16 g ai/ha; for Johnsongrass plant response rating / Plant response rating, Johnsongrass: scale 0 to 100 (0 no effect, 100 complete control)", "how_it_was_run": "as §1"}, "sedge, umbrella": {"test_system": "sedge, umbrella", "assay": "Test B flooded paddy test", "type": "in vivo, Cyperus difformis", "conditions": "Flood, 250 g ai/ha; 0 to 100 scale where 0 is no effect and 100 is complete control", "how_it_was_run": "as §2"}, "giant foxtail": {"test_system": "giant foxtail", "assay": "Test C preemergence", "type": "in vivo, Setaria faberii", "conditions": "for Foxtail, Giant plant response rating: preemergence; for Plant response rating, Foxtail, Giant: Preemergence, 31 g ai/ha, scale 0 to 100, 0 no effect, 100 complete control", "how_it_was_run": "as §1"}, "velvetleaf": {"test_system": "velvetleaf", "assay": "Test C postemergence", "type": "in vivo, Abutilon theophrasti", "conditions": "for Plant response rating, Velvetleaf: scale 0 to 100 (0 no effect, 100 complete control)", "how_it_was_run": "as §1"}, "yellow nutsedge": {"test_system": "yellow nutsedge", "assay": "Test C postemergence", "type": "in vivo, Cyperus esculentus", "conditions": "for Plant response rating, Nutsedge, Yellow: scale 0 to 100 (0 no effect, 100 complete control)", "how_it_was_run": "as §1"}, "[6]": {"conditions": "Postemergence, 31 g ai/ha, 13 to 15 days"}, "[7]": {"conditions": "postemergence, visual rating, 13 to 15 days"}, "[8]": {"conditions": "16 g ai/ha, scale 0 to 100 (0 no effect, 100 complete control)"}, "[9]": {"conditions": "62 g ai/ha, scale 0 (no effect) to 100 (complete control)"}, "[10]": {"conditions": "125 g ai/ha, scale 0 (no effect) to 100 (complete control)"}, "[11]": {"conditions": "125 g ai/ha, postemergence, visual rating"}}}
{"smiles": "CCOc1cnn(-c2c(C#N)cccc2Oc2ncc(Cl)cn2)c1", "note": "[Compound 92]", "values": [{"measurement": "Plant response rating (0 to 100), Ryegrass, Italian", "setting": "Italian ryegrass; 125 g ai/ha, postemergence", "value": 35}, {"measurement": "Plant response rating, Ryegrass, Italian", "setting": "Italian ryegrass; [6]", "value": 5}, {"measurement": "Plant response rating, Ryegrass, Italian", "setting": "Italian ryegrass; Postemergence, 62 g ai/ha", "value": 5}, {"measurement": "Barnyardgrass plant response rating", "setting": "barnyardgrass [1]; [7]", "value": 5}, {"measurement": "Plant response rating (0 to 100), Barnyardgrass", "setting": "barnyardgrass [1]; 125 g ai/ha, postemergence", "value": 10}, {"measurement": "Plant response rating, Barnyardgrass", "setting": "barnyardgrass [1]; [6]", "value": 5}, {"measurement": "Plant response rating, Barnyardgrass", "setting": "barnyardgrass [1]; Postemergence, 62 g ai/ha", "value": 5}, {"measurement": "Plant response rating, Barnyardgrass", "setting": "barnyardgrass [2]", "value": 20}, {"measurement": "Plant response rating (0 to 100), Oat, Wild", "setting": "wild oat; 125 g ai/ha, postemergence", "value": 15}, {"measurement": "Plant response rating, Oat, Wild", "setting": "wild oat; [6]", "value": 5}, {"measurement": "Plant response rating, Oat, Wild", "setting": "wild oat; Postemergence, 62 g ai/ha", "value": 10}, {"measurement": "Corn plant response rating", "setting": "corn [3]; [8]", "value": 0}, {"measurement": "Corn plant response rating", "setting": "corn [3]; [9]", "value": 5}, {"measurement": "Corn plant response rating", "setting": "corn [3]; [10]", "value": 65}, {"measurement": "Plant response rating, Corn", "setting": "corn [3]", "value": 0}, {"measurement": "Plant response rating, Corn", "setting": "corn [4]", "value": 10}, {"measurement": "Corn plant response rating", "setting": "corn [4]", "value": 40}, {"measurement": "Plant response rating, Morningglory", "setting": "morningglory", "value": 90}, {"measurement": "Morningglory plant response rating", "setting": "morningglory", "value": 100}, {"measurement": "Plant response rating, Barnyardgrass", "setting": "barnyardgrass [5]; 125 g ai/ha", "value": 90}, {"measurement": "Plant response rating, Barnyardgrass", "setting": "barnyardgrass [5]; 500 g ai/ha", "value": 100}, {"measurement": "Plant response rating (0 to 100), Waterhemp", "setting": "waterhemp; 125 g ai/ha, postemergence", "value": 80}, {"measurement": "Plant response rating, Waterhemp", "setting": "waterhemp; [6]", "value": 45}, {"measurement": "Plant response rating, Waterhemp", "setting": "waterhemp; Postemergence, 62 g ai/ha", "value": 75}, {"measurement": "Plant response rating (0 to 100), Pigweed", "setting": "pigweed; 125 g ai/ha, postemergence", "value": 75}, {"measurement": "Plant response rating, Pigweed", "setting": "pigweed; [6]", "value": 60}, {"measurement": "Plant response rating, Pigweed", "setting": "pigweed; Postemergence, 62 g ai/ha", "value": 55}, {"measurement": "Johnsongrass plant response rating", "setting": "johnsongrass; [7]", "value": 0}, {"measurement": "Plant response rating (0 to 100), Johnsongrass", "setting": "johnsongrass; 125 g ai/ha, postemergence", "value": 5}, {"measurement": "Plant response rating, Johnsongrass", "setting": "johnsongrass; [6]", "value": 0}, {"measurement": "Plant response rating, Johnsongrass", "setting": "johnsongrass; Postemergence, 62 g ai/ha", "value": 5}, {"measurement": "Plant response rating, Sedge, Umbrella", "setting": "sedge, umbrella", "value": 90}, {"measurement": "Foxtail, Giant plant response rating", "setting": "giant foxtail; [8]", "value": 30}, {"measurement": "Foxtail, Giant plant response rating", "setting": "giant foxtail; [9]", "value": 100}, {"measurement": "Foxtail, Giant plant response rating", "setting": "giant foxtail; [10]", "value": 100}, {"measurement": "Plant response rating, Foxtail, Giant", "setting": "giant foxtail", "value": 98}, {"measurement": "Plant response rating (0 to 100), Velvetleaf", "setting": "velvetleaf; 125 g ai/ha, postemergence", "value": 60}, {"measurement": "Plant response rating, Velvetleaf", "setting": "velvetleaf; [6]", "value": 45}, {"measurement": "Plant response rating, Velvetleaf", "setting": "velvetleaf; Postemergence, 62 g ai/ha", "value": 50}, {"measurement": "Plant response rating (0 to 100), Nutsedge, Yellow", "setting": "yellow nutsedge; 125 g ai/ha, postemergence", "value": 5}, {"measurement": "Plant response rating, Nutsedge, Yellow", "setting": "yellow nutsedge; [6]", "value": 5}, {"measurement": "Plant response rating, Nutsedge, Yellow", "setting": "yellow nutsedge; Postemergence, 62 g ai/ha", "value": 5}]}
{"smiles": "N#Cc1cnn(-c2c(C#N)cccc2Oc2ncc(F)cn2)c1", "note": "[Compound 111]", "values": [{"measurement": "Plant response rating, Ryegrass, Italian", "setting": "Italian ryegrass; [11]", "value": 0}, {"measurement": "Plant response rating, Ryegrass, Italian", "setting": "Italian ryegrass; Postemergence, 62 g ai/ha", "value": 0}, {"measurement": "Barnyardgrass plant response rating", "setting": "barnyardgrass [1]; [7]", "value": 5}, {"measurement": "Plant response rating, Barnyardgrass", "setting": "barnyardgrass [1]; [11]", "value": 35}, {"measurement": "Plant response rating, Barnyardgrass", "setting": "barnyardgrass [1]; [6]", "value": 5}, {"measurement": "Plant response rating, Barnyardgrass", "setting": "barnyardgrass [1]; Postemergence, 62 g ai/ha", "value": 5}, {"measurement": "Plant response rating, Barnyardgrass", "setting": "barnyardgrass [2]", "value": 0}, {"measurement": "Plant response rating, Oat, Wild", "setting": "wild oat; [11]", "value": 5}, {"measurement": "Plant response rating, Oat, Wild", "setting": "wild oat; Postemergence, 62 g ai/ha", "value": 5}, {"measurement": "Corn plant response rating", "setting": "corn [3]; [8]", "value": 5}, {"measurement": "Corn plant response rating", "setting": "corn [3]; [9]", "value": 5}, {"measurement": "Corn plant response rating", "setting": "corn [3]; [10]", "value": 65}, {"measurement": "Plant response rating, Corn", "setting": "corn [3]", "value": 5}, {"measurement": "Plant response rating, Corn", "setting": "corn [4]", "value": 20}, {"measurement": "Corn plant response rating", "setting": "corn [4]", "value": 50}, {"measurement": "Plant response rating, Morningglory", "setting": "morningglory", "value": 90}, {"measurement": "Morningglory plant response rating", "setting": "morningglory", "value": 100}, {"measurement": "Plant response rating, Barnyardgrass", "setting": "barnyardgrass [5]; 125 g ai/ha", "value": 60}, {"measurement": "Plant response rating, Barnyardgrass", "setting": "barnyardgrass [5]; 500 g ai/ha", "value": 90}, {"measurement": "Plant response rating, Waterhemp", "setting": "waterhemp; [11]", "value": 90}, {"measurement": "Plant response rating, Waterhemp", "setting": "waterhemp; Postemergence, 62 g ai/ha", "value": 80}, {"measurement": "Plant response rating, Pigweed", "setting": "pigweed; [11]", "value": 85}, {"measurement": "Plant response rating, Pigweed", "setting": "pigweed; Postemergence, 62 g ai/ha", "value": 85}, {"measurement": "Johnsongrass plant response rating", "setting": "johnsongrass; [7]", "value": 5}, {"measurement": "Plant response rating, Johnsongrass", "setting": "johnsongrass; [11]", "value": 10}, {"measurement": "Plant response rating, Johnsongrass", "setting": "johnsongrass; Postemergence, 62 g ai/ha", "value": 5}, {"measurement": "Plant response rating, Sedge, Umbrella", "setting": "sedge, umbrella", "value": 75}, {"measurement": "Foxtail, Giant plant response rating", "setting": "giant foxtail; [8]", "value": 15}, {"measurement": "Foxtail, Giant plant response rating", "setting": "giant foxtail; [9]", "value": 100}, {"measurement": "Foxtail, Giant plant response rating", "setting": "giant foxtail; [10]", "value": 100}, {"measurement": "Plant response rating, Foxtail, Giant", "setting": "giant foxtail", "value": 100}, {"measurement": "Plant response rating, Velvetleaf", "setting": "velvetleaf; [11]", "value": 80}, {"measurement": "Plant response rating, Velvetleaf", "setting": "velvetleaf; Postemergence, 62 g ai/ha", "value": 75}, {"measurement": "Plant response rating, Nutsedge, Yellow", "setting": "yellow nutsedge; [11]", "value": 5}, {"measurement": "Plant response rating, Nutsedge, Yellow", "setting": "yellow nutsedge; Postemergence, 62 g ai/ha", "value": 5}]}
